Measurements: ChEMBL document CHEMBL4346688, “Discovery of novel mutant-combating ALK and ROS1 dual inhibitors bearing imidazolidin-2-one moiety with reasonable PK properties” (Eur J Med Chem, 2019)

Biological target: ALK tyrosine kinase receptor (Homo sapiens, UniProt Q9UM73, L1196M)
Assay: not given
Settings: not given

Row | Structure (SMILES) | IC50 [nM]
1 | COc1cc(N2CCN(CC(=O)N3CCC(=O)CC3)C2=O)ccc1Nc1ncc(Cl)c(Nc2ccccc2S(=O)(=O)C(C)C)n1 | 2.7
2 | COc1cc(N2CCN(CC(=O)N3CCN(C)CC3)C2=O)ccc1Nc1ncc(Cl)c(Nc2ccccc2S(=O)(=O)C(C)C)n1 | 0.87
3 | COc1cc(N2CCN(CC(=O)N(C)C)C2=O)ccc1Nc1ncc(Cl)c(Nc2ccccc2S(=O)(=O)C(C)C)n1 | 3.7
4 | COc1cc(N2CCN(CCCN)C2=O)ccc1Nc1ncc(Cl)c(Nc2ccccc2S(=O)(=O)C(C)C)n1 | 5.1

Tested on: A549
Assay: cells
Settings: Homo sapiens, A549, 72 h
Description: Cytotoxicity against human A549 cells incubated for 72 hrs by MTT assay

Row | Structure (SMILES) | IC50 [nM]
5 | COc1cc(N2CCN(CC(=O)N3CCC(=O)CC3)C2=O)ccc1Nc1ncc(Cl)c(Nc2ccccc2S(=O)(=O)C(C)C)n1 | > 5000
6 | COc1cc(N2CCN(CC(=O)N3CCN(C)CC3)C2=O)ccc1Nc1ncc(Cl)c(Nc2ccccc2S(=O)(=O)C(C)C)n1 | 1720
7 | COc1cc(N2CCN(CC(=O)N(C)C)C2=O)ccc1Nc1ncc(Cl)c(Nc2ccccc2S(=O)(=O)C(C)C)n1 | 2300
8 | COc1cc(N2CCN(CCCN)C2=O)ccc1Nc1ncc(Cl)c(Nc2ccccc2S(=O)(=O)C(C)C)n1 | > 5000

Biological target: ALK tyrosine kinase receptor (Homo sapiens, UniProt Q9UM73)
Assay: not given
Settings: not given

ALK tyrosine kinase receptor (Homo sapiens, UniProt Q9UM73), sequence (Q9UM73 whole entry): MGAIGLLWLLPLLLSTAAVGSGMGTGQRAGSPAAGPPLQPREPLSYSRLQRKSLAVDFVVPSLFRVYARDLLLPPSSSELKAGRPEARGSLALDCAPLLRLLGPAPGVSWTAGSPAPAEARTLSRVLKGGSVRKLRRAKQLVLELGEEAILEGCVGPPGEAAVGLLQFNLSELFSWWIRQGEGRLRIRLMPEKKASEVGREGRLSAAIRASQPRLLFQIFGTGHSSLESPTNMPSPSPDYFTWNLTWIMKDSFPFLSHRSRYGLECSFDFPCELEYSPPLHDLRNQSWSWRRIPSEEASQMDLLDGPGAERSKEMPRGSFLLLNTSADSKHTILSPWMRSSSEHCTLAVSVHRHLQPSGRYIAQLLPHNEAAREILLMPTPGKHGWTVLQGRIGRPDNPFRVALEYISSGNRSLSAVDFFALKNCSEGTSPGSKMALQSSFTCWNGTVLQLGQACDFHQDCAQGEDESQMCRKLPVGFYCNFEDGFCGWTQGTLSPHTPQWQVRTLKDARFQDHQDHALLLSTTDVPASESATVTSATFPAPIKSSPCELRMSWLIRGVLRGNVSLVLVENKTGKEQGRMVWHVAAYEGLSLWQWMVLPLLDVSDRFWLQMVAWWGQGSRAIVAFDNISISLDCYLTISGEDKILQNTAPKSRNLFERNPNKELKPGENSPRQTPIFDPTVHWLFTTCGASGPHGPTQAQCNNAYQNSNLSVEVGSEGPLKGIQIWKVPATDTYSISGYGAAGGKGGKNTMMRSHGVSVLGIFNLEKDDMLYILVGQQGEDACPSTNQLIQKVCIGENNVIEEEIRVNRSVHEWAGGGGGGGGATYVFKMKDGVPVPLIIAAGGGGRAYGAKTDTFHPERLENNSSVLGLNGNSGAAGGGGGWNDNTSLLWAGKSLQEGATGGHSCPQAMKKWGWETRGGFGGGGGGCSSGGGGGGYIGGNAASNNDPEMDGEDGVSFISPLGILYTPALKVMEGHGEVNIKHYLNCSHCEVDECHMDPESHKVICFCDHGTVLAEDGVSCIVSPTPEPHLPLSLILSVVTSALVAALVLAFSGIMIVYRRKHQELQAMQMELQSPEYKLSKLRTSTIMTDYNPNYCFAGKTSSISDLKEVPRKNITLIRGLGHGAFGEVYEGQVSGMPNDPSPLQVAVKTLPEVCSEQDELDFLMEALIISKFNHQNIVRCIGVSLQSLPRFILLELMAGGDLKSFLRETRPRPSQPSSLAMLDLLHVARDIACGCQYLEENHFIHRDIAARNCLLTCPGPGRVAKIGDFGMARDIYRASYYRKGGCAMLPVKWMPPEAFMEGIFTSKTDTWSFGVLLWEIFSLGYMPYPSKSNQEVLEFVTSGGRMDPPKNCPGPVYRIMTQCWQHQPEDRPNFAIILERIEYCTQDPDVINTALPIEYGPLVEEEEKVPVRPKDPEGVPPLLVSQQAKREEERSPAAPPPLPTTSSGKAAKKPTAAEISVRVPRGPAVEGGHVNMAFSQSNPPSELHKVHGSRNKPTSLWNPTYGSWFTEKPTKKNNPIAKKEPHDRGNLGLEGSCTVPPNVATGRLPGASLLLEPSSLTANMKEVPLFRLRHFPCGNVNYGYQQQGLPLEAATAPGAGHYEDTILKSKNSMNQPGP

Row | Structure (SMILES) | IC50 [nM]
9 | COc1cc(N2CCN(CC(=O)N3CCC(=O)CC3)C2=O)ccc1Nc1ncc(Cl)c(Nc2ccccc2S(=O)(=O)C(C)C)n1 | 5.3
10 | COc1cc(N2CCN(CC(=O)N3CCN(C)CC3)C2=O)ccc1Nc1ncc(Cl)c(Nc2ccccc2S(=O)(=O)C(C)C)n1 | 2.1
11 | COc1cc(N2CCN(CC(=O)N(C)C)C2=O)ccc1Nc1ncc(Cl)c(Nc2ccccc2S(=O)(=O)C(C)C)n1 | 6.7
12 | COc1cc(N2CCN(CCCN)C2=O)ccc1Nc1ncc(Cl)c(Nc2ccccc2S(=O)(=O)C(C)C)n1 | 4.7

Tested on: KARPAS-299
Assay: cells
Settings: Homo sapiens, KARPAS-299, 72 h
Description: Cytotoxicity against human KARPAS299 cells incubated for 72 hrs by MTT assay

Row | Structure (SMILES) | IC50 [nM]
13 | COc1cc(N2CCN(CC(=O)N3CCC(=O)CC3)C2=O)ccc1Nc1ncc(Cl)c(Nc2ccccc2S(=O)(=O)C(C)C)n1 | 100
14 | COc1cc(N2CCN(CC(=O)N3CCN(C)CC3)C2=O)ccc1Nc1ncc(Cl)c(Nc2ccccc2S(=O)(=O)C(C)C)n1 | 39
15 | COc1cc(N2CCN(CC(=O)N(C)C)C2=O)ccc1Nc1ncc(Cl)c(Nc2ccccc2S(=O)(=O)C(C)C)n1 | 95
16 | COc1cc(N2CCN(CCCN)C2=O)ccc1Nc1ncc(Cl)c(Nc2ccccc2S(=O)(=O)C(C)C)n1 | 170

Tested on: NCI-H2228
Assay: cells
Settings: Homo sapiens, NCI-H2228, 72 h
Description: Cytotoxicity against human NCI-H2228 cells incubated for 72 hrs by MTT assay

Row | Structure (SMILES) | IC50 [nM]
17 | COc1cc(N2CCN(CC(=O)N3CCC(=O)CC3)C2=O)ccc1Nc1ncc(Cl)c(Nc2ccccc2S(=O)(=O)C(C)C)n1 | 92
18 | COc1cc(N2CCN(CC(=O)N3CCN(C)CC3)C2=O)ccc1Nc1ncc(Cl)c(Nc2ccccc2S(=O)(=O)C(C)C)n1 | 41
19 | COc1cc(N2CCN(CC(=O)N(C)C)C2=O)ccc1Nc1ncc(Cl)c(Nc2ccccc2S(=O)(=O)C(C)C)n1 | 530
20 | COc1cc(N2CCN(CCCN)C2=O)ccc1Nc1ncc(Cl)c(Nc2ccccc2S(=O)(=O)C(C)C)n1 | 530

Tested on: HCC78
Assay: cells
Settings: Homo sapiens, HCC78, 72 h
Description: Cytotoxicity against human HCC78 cells incubated for 72 hrs by MTT assay

Row | Structure (SMILES) | IC50 [nM]
21 | COc1cc(N2CCN(CC(=O)N3CCC(=O)CC3)C2=O)ccc1Nc1ncc(Cl)c(Nc2ccccc2S(=O)(=O)C(C)C)n1 | 670
22 | COc1cc(N2CCN(CC(=O)N3CCN(C)CC3)C2=O)ccc1Nc1ncc(Cl)c(Nc2ccccc2S(=O)(=O)C(C)C)n1 | 87
23 | COc1cc(N2CCN(CC(=O)N(C)C)C2=O)ccc1Nc1ncc(Cl)c(Nc2ccccc2S(=O)(=O)C(C)C)n1 | 93
24 | COc1cc(N2CCN(CCCN)C2=O)ccc1Nc1ncc(Cl)c(Nc2ccccc2S(=O)(=O)C(C)C)n1 | 160

Biological target: Proto-oncogene tyrosine-protein kinase ROS (Homo sapiens, UniProt P08922)
Assay: not given
Settings: not given

Proto-oncogene tyrosine-protein kinase ROS, sequence (P08922 whole entry): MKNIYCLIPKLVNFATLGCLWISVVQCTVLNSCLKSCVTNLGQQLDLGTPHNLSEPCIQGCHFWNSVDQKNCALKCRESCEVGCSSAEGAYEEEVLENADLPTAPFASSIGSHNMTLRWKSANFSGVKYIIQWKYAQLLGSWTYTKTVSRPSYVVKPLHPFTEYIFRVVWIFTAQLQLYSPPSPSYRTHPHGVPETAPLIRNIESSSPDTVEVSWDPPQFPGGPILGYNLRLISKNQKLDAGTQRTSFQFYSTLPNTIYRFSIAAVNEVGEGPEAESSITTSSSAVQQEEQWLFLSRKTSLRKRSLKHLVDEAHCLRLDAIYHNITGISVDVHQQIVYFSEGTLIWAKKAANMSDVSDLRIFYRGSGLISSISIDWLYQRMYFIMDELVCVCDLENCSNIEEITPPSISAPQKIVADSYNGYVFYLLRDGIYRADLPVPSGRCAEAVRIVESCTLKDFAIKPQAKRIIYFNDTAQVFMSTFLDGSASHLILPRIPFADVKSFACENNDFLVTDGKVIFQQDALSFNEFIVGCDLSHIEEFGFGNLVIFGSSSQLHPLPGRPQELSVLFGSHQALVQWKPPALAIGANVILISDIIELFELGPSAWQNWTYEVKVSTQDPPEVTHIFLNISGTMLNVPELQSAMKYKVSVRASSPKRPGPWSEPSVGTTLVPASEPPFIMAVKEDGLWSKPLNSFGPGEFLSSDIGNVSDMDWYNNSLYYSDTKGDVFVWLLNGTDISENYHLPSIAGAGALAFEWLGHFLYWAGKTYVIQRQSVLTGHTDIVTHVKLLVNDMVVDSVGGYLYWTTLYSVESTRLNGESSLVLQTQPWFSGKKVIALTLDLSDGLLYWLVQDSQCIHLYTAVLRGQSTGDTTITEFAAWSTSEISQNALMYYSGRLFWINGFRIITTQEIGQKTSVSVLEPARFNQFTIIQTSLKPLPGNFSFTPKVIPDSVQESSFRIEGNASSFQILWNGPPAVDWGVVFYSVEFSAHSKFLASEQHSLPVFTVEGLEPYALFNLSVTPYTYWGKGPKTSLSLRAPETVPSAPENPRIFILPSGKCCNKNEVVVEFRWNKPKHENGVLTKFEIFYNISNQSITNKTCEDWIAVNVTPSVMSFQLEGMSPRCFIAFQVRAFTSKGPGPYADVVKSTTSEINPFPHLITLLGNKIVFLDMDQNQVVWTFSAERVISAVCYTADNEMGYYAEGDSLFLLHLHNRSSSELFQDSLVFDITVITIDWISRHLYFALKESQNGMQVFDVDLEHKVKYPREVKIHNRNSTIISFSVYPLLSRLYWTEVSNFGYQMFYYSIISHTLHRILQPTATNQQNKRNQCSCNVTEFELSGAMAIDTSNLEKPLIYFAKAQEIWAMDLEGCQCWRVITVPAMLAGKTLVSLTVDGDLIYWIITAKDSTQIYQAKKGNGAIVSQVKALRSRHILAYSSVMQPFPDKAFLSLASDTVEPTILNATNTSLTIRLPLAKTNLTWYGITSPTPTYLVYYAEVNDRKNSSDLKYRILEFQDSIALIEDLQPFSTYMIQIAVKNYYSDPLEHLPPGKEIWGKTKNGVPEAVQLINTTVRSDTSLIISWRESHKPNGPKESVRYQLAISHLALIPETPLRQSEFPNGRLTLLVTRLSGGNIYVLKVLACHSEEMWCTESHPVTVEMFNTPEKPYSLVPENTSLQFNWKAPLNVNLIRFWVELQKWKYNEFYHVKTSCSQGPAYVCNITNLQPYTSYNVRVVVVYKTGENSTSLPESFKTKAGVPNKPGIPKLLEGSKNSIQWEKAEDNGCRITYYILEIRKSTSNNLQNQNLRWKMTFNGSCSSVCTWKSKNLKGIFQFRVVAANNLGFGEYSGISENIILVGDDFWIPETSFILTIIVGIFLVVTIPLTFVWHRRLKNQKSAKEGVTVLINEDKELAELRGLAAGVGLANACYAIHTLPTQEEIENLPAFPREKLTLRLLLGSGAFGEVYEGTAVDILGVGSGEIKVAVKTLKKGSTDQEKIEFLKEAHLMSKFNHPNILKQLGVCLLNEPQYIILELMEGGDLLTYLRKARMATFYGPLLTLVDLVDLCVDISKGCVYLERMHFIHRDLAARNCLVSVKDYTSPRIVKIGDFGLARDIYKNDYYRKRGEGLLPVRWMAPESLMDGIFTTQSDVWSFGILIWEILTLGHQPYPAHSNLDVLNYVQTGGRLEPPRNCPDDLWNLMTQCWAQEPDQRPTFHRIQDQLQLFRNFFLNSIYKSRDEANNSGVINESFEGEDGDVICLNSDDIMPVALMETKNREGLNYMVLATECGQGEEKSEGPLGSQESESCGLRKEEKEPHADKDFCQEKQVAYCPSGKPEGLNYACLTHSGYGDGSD

Row | Structure (SMILES) | IC50 [nM]
25 | COc1cc(N2CCN(CC(=O)N3CCC(=O)CC3)C2=O)ccc1Nc1ncc(Cl)c(Nc2ccccc2S(=O)(=O)C(C)C)n1 | 1.7
26 | COc1cc(N2CCN(CC(=O)N3CCN(C)CC3)C2=O)ccc1Nc1ncc(Cl)c(Nc2ccccc2S(=O)(=O)C(C)C)n1 | 0.81
27 | COc1cc(N2CCN(CC(=O)N(C)C)C2=O)ccc1Nc1ncc(Cl)c(Nc2ccccc2S(=O)(=O)C(C)C)n1 | 0.97
28 | COc1cc(N2CCN(CCCN)C2=O)ccc1Nc1ncc(Cl)c(Nc2ccccc2S(=O)(=O)C(C)C)n1 | 5.3

Tested on: BaF3
Assay: cells
Settings: Mus musculus, BaF3, 72 h
Description: Cytotoxicity against mouse BA/F3 cells incubated for 72 hrs by MTT assay

Row | Structure (SMILES) | IC50 [nM]
29 | COc1cc(N2CCN(CC(=O)N3CCC(=O)CC3)C2=O)ccc1Nc1ncc(Cl)c(Nc2ccccc2S(=O)(=O)C(C)C)n1 | > 5000
30 | COc1cc(N2CCN(CC(=O)N3CCN(C)CC3)C2=O)ccc1Nc1ncc(Cl)c(Nc2ccccc2S(=O)(=O)C(C)C)n1 | > 5000
31 | COc1cc(N2CCN(CC(=O)N(C)C)C2=O)ccc1Nc1ncc(Cl)c(Nc2ccccc2S(=O)(=O)C(C)C)n1 | > 5000
32 | COc1cc(N2CCN(CCCN)C2=O)ccc1Nc1ncc(Cl)c(Nc2ccccc2S(=O)(=O)C(C)C)n1 | > 5000

Biological target: Epidermal growth factor receptor (Homo sapiens, UniProt P00533)
Assay: not given
Settings: not given

Epidermal growth factor receptor, sequence (P00533 whole entry): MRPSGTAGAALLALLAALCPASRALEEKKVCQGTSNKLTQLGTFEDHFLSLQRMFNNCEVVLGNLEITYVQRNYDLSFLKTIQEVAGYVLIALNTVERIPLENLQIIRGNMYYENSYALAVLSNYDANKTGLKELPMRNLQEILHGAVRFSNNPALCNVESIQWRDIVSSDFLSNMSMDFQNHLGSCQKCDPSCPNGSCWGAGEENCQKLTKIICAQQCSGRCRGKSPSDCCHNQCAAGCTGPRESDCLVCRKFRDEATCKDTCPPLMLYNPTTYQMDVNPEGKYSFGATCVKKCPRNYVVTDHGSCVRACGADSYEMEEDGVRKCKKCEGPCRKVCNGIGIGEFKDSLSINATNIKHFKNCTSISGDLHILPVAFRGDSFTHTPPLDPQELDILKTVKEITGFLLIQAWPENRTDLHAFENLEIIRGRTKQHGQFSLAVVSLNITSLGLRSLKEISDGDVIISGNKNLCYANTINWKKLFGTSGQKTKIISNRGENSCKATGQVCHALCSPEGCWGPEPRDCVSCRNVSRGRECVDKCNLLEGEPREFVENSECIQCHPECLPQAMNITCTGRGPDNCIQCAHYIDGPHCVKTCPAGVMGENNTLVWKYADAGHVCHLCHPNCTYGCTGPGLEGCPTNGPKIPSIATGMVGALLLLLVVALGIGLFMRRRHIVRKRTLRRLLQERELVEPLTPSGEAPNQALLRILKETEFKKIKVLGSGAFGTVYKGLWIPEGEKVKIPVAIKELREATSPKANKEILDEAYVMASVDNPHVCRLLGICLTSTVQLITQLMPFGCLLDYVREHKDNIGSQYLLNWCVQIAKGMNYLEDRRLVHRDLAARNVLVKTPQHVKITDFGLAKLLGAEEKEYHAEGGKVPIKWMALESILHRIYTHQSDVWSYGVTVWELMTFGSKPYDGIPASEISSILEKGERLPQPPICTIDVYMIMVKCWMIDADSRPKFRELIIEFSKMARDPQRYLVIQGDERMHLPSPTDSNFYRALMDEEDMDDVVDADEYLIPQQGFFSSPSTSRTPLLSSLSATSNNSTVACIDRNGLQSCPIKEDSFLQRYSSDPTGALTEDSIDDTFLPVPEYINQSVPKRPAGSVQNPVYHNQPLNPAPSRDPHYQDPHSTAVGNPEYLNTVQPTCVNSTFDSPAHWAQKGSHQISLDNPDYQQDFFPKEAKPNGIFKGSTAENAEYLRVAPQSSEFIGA

Row | Structure (SMILES) | IC50 [nM]
33 | COc1cc(N2CCN(CC(=O)N3CCC(=O)CC3)C2=O)ccc1Nc1ncc(Cl)c(Nc2ccccc2S(=O)(=O)C(C)C)n1 | > 1000
34 | COc1cc(N2CCN(CC(=O)N3CCN(C)CC3)C2=O)ccc1Nc1ncc(Cl)c(Nc2ccccc2S(=O)(=O)C(C)C)n1 | > 1000
35 | COc1cc(N2CCN(CC(=O)N(C)C)C2=O)ccc1Nc1ncc(Cl)c(Nc2ccccc2S(=O)(=O)C(C)C)n1 | 598
36 | COc1cc(N2CCN(CCCN)C2=O)ccc1Nc1ncc(Cl)c(Nc2ccccc2S(=O)(=O)C(C)C)n1 | > 1000

Tested on: A549
Assay: cells
Settings: Homo sapiens, A549, 72 h
Remark: another data set of the same source

Row | Structure (SMILES) | IC50 [nM]
37 | COc1cc(N2CCN(CC(=O)N3CCC(=O)CC3)C2=O)ccc1Nc1ncc(Cl)c(Nc2ccccc2S(=O)(=O)C(C)C)n1 | 3550
38 | COc1cc(N2CCN(CC(=O)N3CCN(C)CC3)C2=O)ccc1Nc1ncc(Cl)c(Nc2ccccc2S(=O)(=O)C(C)C)n1 | 94
39 | COc1cc(N2CCN(CC(=O)N(C)C)C2=O)ccc1Nc1ncc(Cl)c(Nc2ccccc2S(=O)(=O)C(C)C)n1 | 1230
40 | COc1cc(N2CCN(CCCN)C2=O)ccc1Nc1ncc(Cl)c(Nc2ccccc2S(=O)(=O)C(C)C)n1 | 1980

Tested on: BaF3
Assay: cells
Settings: Mus musculus, BaF3, 72 h
Remark: another data set of the same source

Row | Structure (SMILES) | IC50 [nM]
41 | COc1cc(N2CCN(CC(=O)N3CCC(=O)CC3)C2=O)ccc1Nc1ncc(Cl)c(Nc2ccccc2S(=O)(=O)C(C)C)n1 | 460
42 | COc1cc(N2CCN(CC(=O)N3CCN(C)CC3)C2=O)ccc1Nc1ncc(Cl)c(Nc2ccccc2S(=O)(=O)C(C)C)n1 | 69
43 | COc1cc(N2CCN(CC(=O)N(C)C)C2=O)ccc1Nc1ncc(Cl)c(Nc2ccccc2S(=O)(=O)C(C)C)n1 | 1380
44 | COc1cc(N2CCN(CCCN)C2=O)ccc1Nc1ncc(Cl)c(Nc2ccccc2S(=O)(=O)C(C)C)n1 | 94

Biological target: ALK tyrosine kinase receptor (Homo sapiens, UniProt Q9UM73, G1202R)
Assay: not given
Settings: not given

Row | Structure (SMILES) | IC50 [nM]
45 | COc1cc(N2CCN(CC(=O)N3CCC(=O)CC3)C2=O)ccc1Nc1ncc(Cl)c(Nc2ccccc2S(=O)(=O)C(C)C)n1 | 15.6
46 | COc1cc(N2CCN(CC(=O)N3CCN(C)CC3)C2=O)ccc1Nc1ncc(Cl)c(Nc2ccccc2S(=O)(=O)C(C)C)n1 | 10.3
47 | COc1cc(N2CCN(CC(=O)N(C)C)C2=O)ccc1Nc1ncc(Cl)c(Nc2ccccc2S(=O)(=O)C(C)C)n1 | 23.4
48 | COc1cc(N2CCN(CCCN)C2=O)ccc1Nc1ncc(Cl)c(Nc2ccccc2S(=O)(=O)C(C)C)n1 | 11.9
